# Read-outs that look alike come from different tables or passages of the source.
# Columns and labels:
# Type in all cases: cell-based
# RS4;11-BCL-2 G101V cells = test: Cell proliferation assay, engineered RS4;11 cells stably overexpressing BCL-2 G101V (MTS, 168 h); conditions: read-out: RS4, 11 BCL2- G101V
# Protocol: MTS testing kit was purchased from Promega (Madison, Wis., USA). The RPMI-1640, Fetal bovine serum and Penicillin-Streptomycin were purchased from BI (Biological Industries, Beit Haemek, Israel). Puromycin was purchased from Beyotime (shanghai, China). Dimethyl sulfoxide (DMSO) was purchased from Sigma (St. Louis, Mo., USA). RS4;1l-BCL-2 G101V and RS4;11-BCL-2 F104L cells were cultured in RPM11640 supplemented with 1 ug/mL puromycin, 100 U/mL Penicillin-Streptomycin and 10% FBS.
# To investigate whether a compound is able to inhibit the activity of BCL-2 mutation in cells, a mechanism-based assay using engineered cell lines stably overexpressing BCL-2 mutation ([…] and […]) was developed. In this assay, the inhibition of BCL-2 mutation was reflected by the inhibition of cell proliferation of RS4;11-BCL-2 G101V and RS4;11-BCL-2 F104L cells. Cells were plated into 96-well plates at optimized cell density (RS4;11-BCL-2 G101V: 5000 cells/well; RS4;11-BCL-2 F104L: 5000 cells/well). Plates were incubated at 37° C., with 5% CO2 for 4 h. Compounds were serially diluted to the final-concentrations of 10000, 3333.3, 1111.1, 370.4, 123.5, 41.2, 13.7, 4.6 and 1.4 nM and added to the plates. Plates were incubated at 37° C., with 5% CO2 for 168 h. 20 μl MTS was added into each well and the plates were incubated at 37° C., with 5% CO2 exactly for 2 h. The absorbance was measured by a microplate reader at 490 nm. IC50 values were calculated using GraphPad Prism 5.0 software.
# Toledo cells = test: Cell proliferation assay, Toledo cells (MTS, 72 h); conditions: Toledo cells, MTS, read-out: Toledo IC50
# Summary of the method: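 IC50 was derived from 490 nm absorbance after a 2 h MTS step. Before that, compounds at 1.5–10000 nM final (nine points) acted on Toledo cells for 72 h at 37 °C, 5% CO2. Cells were seeded at 30000/well in 10% FBS RPMI-1640 and rested 4 h before dosing.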
# RS4;11-BCL-2 F104L cells = test: Cell proliferation assay, engineered RS4;11 cells stably overexpressing BCL-2 F104L (MTS, 168 h); conditions: read-out: RS4, 11 BCL2-F104L
# Summary of the method: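 Proliferation read-out: MTS for exactly 2 h, then absorbance at 490 nm, with IC50 derived from the fit. Before this, engineered RS4;11 lines (BCL-2 G101V, F104L; 5000 cells/well) were exposed 168 h at 37 °C to serially diluted compound, final 1.4–10000 nM.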
"IC50 (RS4;11-BCL-2 G101V cells; Homo sapiens, RS4-11, 168 h) [nM]",IC50 (RS4;11-BCL-2 F104L cells; Homo sapiens) [nM],IC50 (RS4;11-BCL-2 G101V cells) [nM],IC50 (RS4;11-BCL-2 F104L cells) [nM],Compound,IC50 (Toledo cells; Homo sapiens) [nM],IC50 (Toledo cells) [nM]
14,33,–,–,"CC(C)c1ccccc1[C@@H]1CCCN1C1CC2(CCN(c3ccc(C(=O)NS(=O)(=O)c4cc5c(c([N+](=O)[O-])c4)N[C@@H]([C@H]4CC[C@](C)(O)CC4)CO5)c(Oc4cc5cc[nH]c5nc4Cl)c3)CC2)C1 (single isomer, unassigned) [Example D-18, 2-((6-chloro-1H-pyrrolo[2,3-b]pyridin-5-yl)oxy)-N-(((S)-3-((1r,4S)-4-hydroxy-4-methylcyclohexyl)-5-nitro-3,4-dihydro-2H-benzo[b] [1,4]oxazin-7-yl)sulfonyl)-4-(2-((R or S)-2-(2-isopropylphenyl)pyrrolidin-1-yl)-7-azaspiro[3.5]nonan-7-yl)benzamide]",1,–
1,1,–,–,"CC(C)c1ccccc1[C@@H]1CCCN1C1CC2(CCN(c3ccc(C(=O)NS(=O)(=O)c4cc5c(c([N+](=O)[O-])c4)N[C@@H]([C@H]4CC[C@](C)(O)CC4)CO5)c(Oc4cc5cc[nH]c5nc4OC[C@H]4CCCN4C)c3)CC2)C1 (single isomer, unassigned) [Example D-130, N-(((S)-3-((1r,4S)-4-hydroxy-4-methylcyclohexyl)-5-nitro-3,4-dihydro-2H-benzo[b][1,4]oxazin-7-yl)sulfonyl)-4-(2-((R or S)-2-(2-isopropylphenyl)pyrrolidin-1-yl)-7-azaspiro[3.5]nonan-7-yl)-2-((6-(((R)-1-methylpyrrolidin-2-yl)methoxy)-1H-pyrrolo[2,3-b]pyridin-5-yl)oxy)benzamide]",1,–
1,1,–,–,"CC(C)c1ccccc1[C@@H]1CCCN1C1CC2(CCN(c3ccc(C(=O)NS(=O)(=O)c4cc5c(c([N+](=O)[O-])c4)N[C@@H]([C@H]4CC[C@](C)(O)CC4)CO5)c(Oc4cc5c(F)c[nH]c5nc4OC4CCN(C)CC4)c3)CC2)C1 (single isomer, unassigned) [Example D-286, 2-((3-fluoro-6-((1-methylpiperidin-4-yl)oxy)-1H-pyrrolo[2,3-b]pyridin-5-yl)oxy)-N-(((S)-3-((1r,4S)-4-hydroxy-4-methylcyclohexyl)-5-nitro-3,4-dihydro-2H-benzo[b] [1,4]oxazin-7-yl)sulfonyl)-4-(2-((R or S)-2-(2-isopropylphenyl)pyrrolidin-1-yl)-7-azaspiro[3.5]nonan-7-yl)benzamide]",1,–
14,19,–,–,"CC(C)c1ccccc1[C@@H]1CCCN1C1CC2(CCN(c3ccc(C(=O)NS(=O)(=O)c4cc5c(c([N+](=O)[O-])c4)N[C@@H]([C@H]4CC[C@](C)(O)CC4)CO5)c(Oc4cc5c(F)c[nH]c5nc4F)c3)CC2)C1 (single isomer, unassigned) [Example D-55, 2-((3,6-difluoro-1H-pyrrolo[2,3-b]pyridin-5-yl)oxy)-N-(((S)-3-((1r,4S)-4-hydroxy-4-methylcyclohexyl)-5-nitro-3,4-dihydro-2H-benzo [b][1,4]oxazin-7-yl)sulfonyl)-4-(2-((R or S)-2-(2-isopropylphenyl)pyrrolidin-1-yl)-7-azaspiro[3.5]nonan-7-yl)benzamide]",1,–
1,1,–,–,"CC(C)c1ccccc1[C@@H]1CCCN1C1CC2(CCN(c3ccc(C(=O)NS(=O)(=O)c4cc5c(c([N+](=O)[O-])c4)N[C@@H]([C@H]4CC[C@](C)(O)CC4)CO5)c(Oc4cc5cc[nH]c5nc4OC[C@@H]4COCCN4)c3)CC2)C1 (single isomer, unassigned) [Example D-214, N-(((S)-3-((1r,4S)-4-hydroxy-4-methylcyclohexyl)-5-nitro-3,4-dihydro-2H-benzo[b][1,4]oxazin-7-yl)sulfonyl)-4-(2-((R or S)-2-(2-isopropylphenyl)pyrrolidin-1-yl)-7-azaspiro[3.5]nonan-7-yl)-2-((6-(((S)-morpholin-3-yl)methoxy)-1H-pyrrolo[2,3-b]pyridin-5-yl)oxy)benzamide]",1,–
19,1,–,–,"CC(C)c1ccccc1[C@@H]1CCC[C@@H]1N1CC2(CCN(c3ccc(C(=O)NS(=O)(=O)c4ccc(NC[C@H]5CC[C@](C)(O)CC5)c([N+](=O)[O-])c4)c(Oc4cc5c(F)c[nH]c5nc4Cl)c3)CC2)C1 (single isomer, unassigned) [Example D-113, 2-((6-chloro-3-fluoro-1H-pyrrolo [2,3-b]pyridin-5-yl)oxy)-N-((4-((((1r,4r)-4-hydroxy-4-methylcyclohexyl)methyl)amino)-3-nitrophenyl)sulfonyl)-4-(2-((1S,2S or 1R,2R)-2-(2-isopropylphenyl)cyclopentyl)-2,7-diazaspiro[3.5]nonan-7-yl)benzamide]",1,–

# Second part, the compound before the results:
Compound,"IC50 (RS4;11-BCL-2 G101V cells; Homo sapiens, RS4-11, 168 h) [nM]",IC50 (RS4;11-BCL-2 F104L cells; Homo sapiens) [nM],IC50 (RS4;11-BCL-2 G101V cells) [nM],IC50 (RS4;11-BCL-2 F104L cells) [nM],IC50 (Toledo cells; Homo sapiens) [nM],IC50 (Toledo cells) [nM]
"CC(C)c1ccccc1[C@@H]1CCC[C@@H]1N1CC2(CCN(c3ccc(C(=O)NS(=O)(=O)c4ccc(NC[C@H]5CC[C@](C)(O)CC5)c([N+](=O)[O-])c4)c(Oc4cc5c(F)c[nH]c5nc4F)c3)CC2)C1 (single isomer, unassigned) [Example D-90, 2-((3,6-difluoro-1H-pyrrolo[2,3-b]pyridin-5-yl)oxy)-N-((4-((1r,4r)-4-hydroxy-4-methylcyclohexyl)methyl)amino)-3-nitrophenyl) sulfonyl)-4-(2-((1S,2S or 1R,2R)-2-(2-isopropylphenyl) cyclopentyl)-2,7-diazaspiro[3.5] nonan-7-yl)benzamide]",5,1,–,–,1,–
"2-((3-fluoro-6-methoxy-1H-pyrrolo [2,3-b]pyridin-5-yl)oxy)-N-(((S)- 3-((1r,4S)-4-hydroxy-4- methylcyclohexyl)- 5-nitro-3,4-dihydro- 2H-benzo[b][1,4]oxazin-7-yl) sulfonyl)-4-(2-((1S,2S or 1R,2R)- 2-(2-isopropylphenyl) cyclopentyl)-2,7-diazaspiro[3.5] nonan-7-yl)benzamide [Example D-102]",–,–,16,1,–,1
"CC(C)c1ccccc1[C@@H]1CCC[C@@H]1N1CC2(CCN(c3ccc(C(=O)NS(=O)(=O)c4cnc(NC[C@H]5CC[C@](C)(O)CC5)c([N+](=O)[O-])c4)c(Oc4cnc5[nH]cc(F)c5c4)c3)CC2)C1 (single isomer, unassigned) [Example A-149, 2-((3-fluoro-1H-pyrrolo[2,3-b]pyridin-5-yl)oxy)-N-((6-((((1r,4r)-4-hydroxy-4-methylcyclohexyl)methyl)amino)-5-nitropyridin-3-yl)sulfonyl)-4-(2-((1S,2S or 1R,2R)-2-(2-isopropylphenyl)cyclo-petyl)-2,7-diazaspiro[3.5]nonan-7-yl) benzamide]",1,1,–,–,1,–
"CC(C)c1ccccc1[C@@H]1CCCN1C1CC2(CCN(c3ccc(C(=O)NS(=O)(=O)c4cc5c(c([N+](=O)[O-])c4)N[C@@H]([C@H]4CC[C@](C)(O)CC4)CO5)c(Oc4cc5cc[nH]c5nc4OCCN(C)C)c3)CC2)C1 (single isomer, unassigned) [Example D-60, 2-((6-(2-(dimethylamino)ethoxy)-1H-pyrrolo[2,3-b]pyridin-5-yl)oxy)-N-(((S)-3-((1r,4S)-4-hydroxy-4-methylcyclohexyl)-5-nitro-3,4-dihydro-2H-benzo[b][1,4]oxazin-7-yl)sulfonyl)-4-(2-((R or S)-2-(2-isopropylphenyl)pyrrolidin-1-yl)-7-azaspiro[3.5]nonan-7-yl)benzamide]",1,1,–,–,1,–
"CC(C)c1ccccc1[C@@H]1CCCN1C1CC2(CCN(c3ccc(C(=O)NS(=O)(=O)c4cc5c(c([N+](=O)[O-])c4)N[C@@H]([C@H]4CC[C@](C)(O)CC4)CO5)c(Oc4cc5cc[nH]c5nc4OC[C@@H]4CCCN4C)c3)CC2)C1 (single isomer, unassigned) [Example D-131, N-(((S)-3-((1r,4S)-4-hydroxy-4-methylcyclohexyl)-5-nitro-3,4-dihydro-2H-benzo[b][1,4]oxazin-7-yl)sulfonyl)-4-(2-((R or S)-2-(2-isopropylphenyl)pyrrolidin-1-yl)-7-azaspiro[3.5]nonan-7-yl)-2-((6-(((S)-1-methylpyrrolidin-2-yl)methoxy)-1H-pyrrolo[2,3-b]pyridin-5-yl)oxy)benzamide]",1,1,–,–,1,–

# — patent US20230159527A1, “COMPOUNDS AS BCL-2 INHIBITORS” (Fochon Pharmaceuticals, Ltd., priority 2020, published 2023)
